For three compounds, IC50 and EC50 results are on record in ChEMBL document CHEMBL1201862, “PubChem BioAssay data set” (2004).

Assay [1] addresses T1, Dual specificity protein phosphatase 3 (Homo sapiens, UniProt P51452). As to the kind of experiment: SAR VHR1 Fluorescent Assay for In Vitro dose response studies. [Related pubchem assays (depositor defined):AID1654, AID1661, AID1878, AID1992, AID2004, AID2070, AID2085]. The assay is classed as functional.
For assay [2], the target named is T2, Tyrosine-protein phosphatase non-receptor type 7 (Homo sapiens, UniProt P35236).
T2 sequence (P35236 whole entry): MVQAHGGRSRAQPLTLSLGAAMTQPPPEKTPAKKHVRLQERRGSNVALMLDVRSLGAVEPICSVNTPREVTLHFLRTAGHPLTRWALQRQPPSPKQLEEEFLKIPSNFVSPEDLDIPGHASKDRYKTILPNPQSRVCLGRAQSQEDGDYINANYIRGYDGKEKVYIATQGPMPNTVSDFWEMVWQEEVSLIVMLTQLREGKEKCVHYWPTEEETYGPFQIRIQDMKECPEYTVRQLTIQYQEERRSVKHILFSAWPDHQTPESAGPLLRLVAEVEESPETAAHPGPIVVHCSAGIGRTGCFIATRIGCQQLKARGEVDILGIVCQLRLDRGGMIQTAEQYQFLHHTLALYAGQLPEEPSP
As to the kind of experiment: SAR analysis of chemical inhibitors of HePTP using a Fluorescent assay - Set 2. [Related pubchem assays (depositor defined):AID1059, AID1077, AID1661, AID2085, AID521]. Format: functional.

Assay [3] is described as follows: cells. Format: functional, cell-based.
Assay [4] deals with T3, Trace amine-associated receptor 1 (Homo sapiens, UniProt Q96RJ0).
T3 sequence (Q96RJ0 whole entry): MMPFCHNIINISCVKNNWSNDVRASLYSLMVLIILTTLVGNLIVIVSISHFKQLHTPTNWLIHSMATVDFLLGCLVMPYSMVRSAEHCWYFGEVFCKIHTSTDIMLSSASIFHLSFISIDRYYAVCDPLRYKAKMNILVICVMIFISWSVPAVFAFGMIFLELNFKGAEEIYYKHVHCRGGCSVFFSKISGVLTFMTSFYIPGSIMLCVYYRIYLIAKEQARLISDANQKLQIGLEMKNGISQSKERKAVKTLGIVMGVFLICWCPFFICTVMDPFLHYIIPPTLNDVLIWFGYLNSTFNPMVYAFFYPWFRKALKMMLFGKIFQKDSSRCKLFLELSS
As to the kind of experiment: Fluorescence-based cell-based high throughput dose response assay to identify agonists of the human trace amine associated receptor 1 (TAAR1). Format: functional.

For assay [5], the target named is T3, Trace amine-associated receptor 1. Put plainly: Counterscreen for agonists of the human trace amine associated receptor 1 (hTAAR1): Fluorescence-based cell-based high throughput dose response assay to identify hTAAR1 agonist that also desensitize TAAR1 receptor response. Format: functional.
The target of assay [6] is Tyrosine-protein phosphatase non-receptor type 11 (Homo sapiens, UniProt Q06124). As to the kind of experiment: SHP2 phosphatase inhibition, dose response, selectivity assay for STEP inhibitor project, biochemical (AID 602367). Format: functional. Conditions: read-out: IC50_Mean.
Assay [7] can be described thus: cells. The assay is classed as functional, cell-based. The source holds these as a separate data set.
Assay [8] has as its target T2, Tyrosine-protein phosphatase non-receptor type 7. Put plainly: redox-dependent HePTP inhibition, mechanism study, biochemical, fluorescence (AID 2068). Format: functional.
Assay [9] has as its target T1, Dual specificity protein phosphatase 3. As to the kind of experiment: SAR VHR1 Fluorescent Assay for In Vitro dose response studies Set 2. [Related pubchem assays (depositor defined):AID1654, AID1661, AID1878]. Format: functional.
The target of assay [10] is T4, Dual specificity protein phosphatase 6 (Rattus norvegicus, UniProt Q64346).
T4 sequence (Q64346 whole entry): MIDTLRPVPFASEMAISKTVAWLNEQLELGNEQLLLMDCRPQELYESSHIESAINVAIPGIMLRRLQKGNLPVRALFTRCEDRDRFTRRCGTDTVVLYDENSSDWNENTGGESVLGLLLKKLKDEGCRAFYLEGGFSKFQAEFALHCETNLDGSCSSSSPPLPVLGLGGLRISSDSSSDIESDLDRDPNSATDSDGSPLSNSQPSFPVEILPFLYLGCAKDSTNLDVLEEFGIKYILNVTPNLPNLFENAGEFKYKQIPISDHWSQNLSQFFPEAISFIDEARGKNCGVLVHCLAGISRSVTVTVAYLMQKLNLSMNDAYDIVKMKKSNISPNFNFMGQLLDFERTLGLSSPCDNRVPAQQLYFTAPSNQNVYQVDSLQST
Format: functional.

Assay [11] deals with T4, Dual specificity protein phosphatase 6. Put plainly: SAR analysis of inhibitors of MKP-3 - Set 2. [Related pubchem assays (depositor defined):AID1055, AID1661, AID425, AID553, AID566]. Format: functional.
In assay [12] the target is Tyrosine-protein phosphatase non-receptor type 5 (Homo sapiens, UniProt P54829). As to the kind of experiment: STEP phosphatase inhibitors, confirmation, biochemical, fluorescence intensity, uHTS hits (AID 602372). Format: functional. Conditions: read-out: IC50_Mean.
For assay [13], the target named is T1, Dual specificity protein phosphatase 3. As to the kind of experiment: VHR1 phosphatase inhibitors, primary screen, biochemical, absorbance, uHTS (AID 1654).
Assay [14] has the same target. As to the kind of experiment: VHR1 phosphatase inhibitors, biochemical (AID 1878).
Assay [15] has the same target. Put plainly: SAR VHR1 absorbance Assay for In Vitro dose response studies. [Related pubchem assays (depositor defined):AID1654, AID1661, AID1878, AID1992, AID2004].
The target is the same in assay [16]. As to the kind of experiment: VHR phosphatase inhibition, dose response, selectivity assay for STEP inhibitor project, biochemical (AID 602374). Format: functional. The note with it: read-out: IC50_Mean.
The target of assay [17] is T4, Dual specificity protein phosphatase 6. As to the kind of experiment: MKP-3 phosphatase inhibitors, primary screen, biochemical, rat enzyme, in vitro (AID 425).
Assay [18] addresses T5, Oxysterols receptor LXR-beta (Homo sapiens, UniProt P55055).
T5 sequence (P55055 whole entry): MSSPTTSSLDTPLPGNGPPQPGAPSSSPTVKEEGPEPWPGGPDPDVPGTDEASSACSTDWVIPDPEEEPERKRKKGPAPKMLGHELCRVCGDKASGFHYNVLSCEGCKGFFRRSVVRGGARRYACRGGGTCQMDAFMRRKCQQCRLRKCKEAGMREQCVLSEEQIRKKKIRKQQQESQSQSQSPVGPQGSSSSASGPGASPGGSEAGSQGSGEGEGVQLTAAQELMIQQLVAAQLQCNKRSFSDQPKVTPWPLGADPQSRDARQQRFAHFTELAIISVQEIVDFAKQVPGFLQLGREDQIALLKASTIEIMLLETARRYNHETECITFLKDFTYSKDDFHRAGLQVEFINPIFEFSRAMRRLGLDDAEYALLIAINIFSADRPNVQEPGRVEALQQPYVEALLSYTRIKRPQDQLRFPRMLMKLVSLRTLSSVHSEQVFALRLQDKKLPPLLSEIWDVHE
The assay is classed as functional, cell-based.

Assay [19] in a line: cells.
The target of assay [20] is T6, Alkaline phosphatase, tissue-nonspecific isozyme (Homo sapiens, UniProt P05186).
T6 sequence (P05186 whole entry): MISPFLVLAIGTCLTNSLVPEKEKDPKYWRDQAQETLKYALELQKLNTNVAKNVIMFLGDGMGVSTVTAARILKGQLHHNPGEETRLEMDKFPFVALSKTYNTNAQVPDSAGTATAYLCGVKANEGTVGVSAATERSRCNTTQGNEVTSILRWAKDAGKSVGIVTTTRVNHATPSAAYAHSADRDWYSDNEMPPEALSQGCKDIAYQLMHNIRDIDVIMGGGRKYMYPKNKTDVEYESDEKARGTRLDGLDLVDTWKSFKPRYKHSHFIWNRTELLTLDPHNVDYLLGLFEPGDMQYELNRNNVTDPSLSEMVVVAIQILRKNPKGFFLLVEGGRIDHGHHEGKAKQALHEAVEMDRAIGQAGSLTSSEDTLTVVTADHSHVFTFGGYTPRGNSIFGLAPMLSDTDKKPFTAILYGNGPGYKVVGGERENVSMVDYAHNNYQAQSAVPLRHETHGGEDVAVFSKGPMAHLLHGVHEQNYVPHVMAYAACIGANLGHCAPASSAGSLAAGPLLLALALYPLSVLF
As to the kind of experiment: inhibition of tissue-nonspecific alkaline phosphatase – biochemical, dose response (AID 488882). Format: functional.

Assay [21] addresses T7, Intestinal-type alkaline phosphatase (Homo sapiens, UniProt P09923). Put plainly: Dose Response confirmation of uHTS hits from a small molecule inhibitors of human intestinal alkaline phosphatase via a luminescent assay. [Related pubchem assays (depositor defined):AID2544, AID2574]. The assay is classed as functional.
The target in another assay is Nonstructural protein 1 (Influenza A virus, UniProt Q194T2). The assay is classed as functional, Influenza A virus (A/California/07/2009(H1N1)).
In assay [22] the target is Intestinal-type alkaline phosphatase (Mus musculus, UniProt P24822). Put plainly: PubChem AID 488874. The assay is classed as functional.
Assay [23] addresses T7, Intestinal-type alkaline phosphatase. Put plainly: human IAP inhibitors, dose response, biochemical, luminescent, uHTS hits, set 2 (AID 488793). The assay is classed as functional.
The target of assay [24] is T8, Voltage-dependent T-type calcium channel subunit alpha-1H (Homo sapiens, UniProt O95180). As to the kind of experiment: Cav3.2 T-type channel inhibitors, synthesized analogs, SAR follow-up, cell-based, synthetic library set 2, HEK293 HH8, Fluo-4 (AID 493023). The assay is classed as functional.
Assay [25] addresses T8, Voltage-dependent T-type calcium channel subunit alpha-1H. As to the kind of experiment: Cav3.2 T-type channel blockers, cell-based, SynthLib3 library, HEK293 Cav3.2, fluorescence (AID 493041). The assay is classed as functional.

Activity calls are given as the source filed them.

T1 sequence (P51452 whole entry): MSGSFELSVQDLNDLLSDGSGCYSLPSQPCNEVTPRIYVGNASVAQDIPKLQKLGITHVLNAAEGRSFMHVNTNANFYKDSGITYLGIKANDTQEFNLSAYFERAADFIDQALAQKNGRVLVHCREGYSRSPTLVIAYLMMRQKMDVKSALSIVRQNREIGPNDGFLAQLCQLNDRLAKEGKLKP
T8 sequence (O95180 whole entry): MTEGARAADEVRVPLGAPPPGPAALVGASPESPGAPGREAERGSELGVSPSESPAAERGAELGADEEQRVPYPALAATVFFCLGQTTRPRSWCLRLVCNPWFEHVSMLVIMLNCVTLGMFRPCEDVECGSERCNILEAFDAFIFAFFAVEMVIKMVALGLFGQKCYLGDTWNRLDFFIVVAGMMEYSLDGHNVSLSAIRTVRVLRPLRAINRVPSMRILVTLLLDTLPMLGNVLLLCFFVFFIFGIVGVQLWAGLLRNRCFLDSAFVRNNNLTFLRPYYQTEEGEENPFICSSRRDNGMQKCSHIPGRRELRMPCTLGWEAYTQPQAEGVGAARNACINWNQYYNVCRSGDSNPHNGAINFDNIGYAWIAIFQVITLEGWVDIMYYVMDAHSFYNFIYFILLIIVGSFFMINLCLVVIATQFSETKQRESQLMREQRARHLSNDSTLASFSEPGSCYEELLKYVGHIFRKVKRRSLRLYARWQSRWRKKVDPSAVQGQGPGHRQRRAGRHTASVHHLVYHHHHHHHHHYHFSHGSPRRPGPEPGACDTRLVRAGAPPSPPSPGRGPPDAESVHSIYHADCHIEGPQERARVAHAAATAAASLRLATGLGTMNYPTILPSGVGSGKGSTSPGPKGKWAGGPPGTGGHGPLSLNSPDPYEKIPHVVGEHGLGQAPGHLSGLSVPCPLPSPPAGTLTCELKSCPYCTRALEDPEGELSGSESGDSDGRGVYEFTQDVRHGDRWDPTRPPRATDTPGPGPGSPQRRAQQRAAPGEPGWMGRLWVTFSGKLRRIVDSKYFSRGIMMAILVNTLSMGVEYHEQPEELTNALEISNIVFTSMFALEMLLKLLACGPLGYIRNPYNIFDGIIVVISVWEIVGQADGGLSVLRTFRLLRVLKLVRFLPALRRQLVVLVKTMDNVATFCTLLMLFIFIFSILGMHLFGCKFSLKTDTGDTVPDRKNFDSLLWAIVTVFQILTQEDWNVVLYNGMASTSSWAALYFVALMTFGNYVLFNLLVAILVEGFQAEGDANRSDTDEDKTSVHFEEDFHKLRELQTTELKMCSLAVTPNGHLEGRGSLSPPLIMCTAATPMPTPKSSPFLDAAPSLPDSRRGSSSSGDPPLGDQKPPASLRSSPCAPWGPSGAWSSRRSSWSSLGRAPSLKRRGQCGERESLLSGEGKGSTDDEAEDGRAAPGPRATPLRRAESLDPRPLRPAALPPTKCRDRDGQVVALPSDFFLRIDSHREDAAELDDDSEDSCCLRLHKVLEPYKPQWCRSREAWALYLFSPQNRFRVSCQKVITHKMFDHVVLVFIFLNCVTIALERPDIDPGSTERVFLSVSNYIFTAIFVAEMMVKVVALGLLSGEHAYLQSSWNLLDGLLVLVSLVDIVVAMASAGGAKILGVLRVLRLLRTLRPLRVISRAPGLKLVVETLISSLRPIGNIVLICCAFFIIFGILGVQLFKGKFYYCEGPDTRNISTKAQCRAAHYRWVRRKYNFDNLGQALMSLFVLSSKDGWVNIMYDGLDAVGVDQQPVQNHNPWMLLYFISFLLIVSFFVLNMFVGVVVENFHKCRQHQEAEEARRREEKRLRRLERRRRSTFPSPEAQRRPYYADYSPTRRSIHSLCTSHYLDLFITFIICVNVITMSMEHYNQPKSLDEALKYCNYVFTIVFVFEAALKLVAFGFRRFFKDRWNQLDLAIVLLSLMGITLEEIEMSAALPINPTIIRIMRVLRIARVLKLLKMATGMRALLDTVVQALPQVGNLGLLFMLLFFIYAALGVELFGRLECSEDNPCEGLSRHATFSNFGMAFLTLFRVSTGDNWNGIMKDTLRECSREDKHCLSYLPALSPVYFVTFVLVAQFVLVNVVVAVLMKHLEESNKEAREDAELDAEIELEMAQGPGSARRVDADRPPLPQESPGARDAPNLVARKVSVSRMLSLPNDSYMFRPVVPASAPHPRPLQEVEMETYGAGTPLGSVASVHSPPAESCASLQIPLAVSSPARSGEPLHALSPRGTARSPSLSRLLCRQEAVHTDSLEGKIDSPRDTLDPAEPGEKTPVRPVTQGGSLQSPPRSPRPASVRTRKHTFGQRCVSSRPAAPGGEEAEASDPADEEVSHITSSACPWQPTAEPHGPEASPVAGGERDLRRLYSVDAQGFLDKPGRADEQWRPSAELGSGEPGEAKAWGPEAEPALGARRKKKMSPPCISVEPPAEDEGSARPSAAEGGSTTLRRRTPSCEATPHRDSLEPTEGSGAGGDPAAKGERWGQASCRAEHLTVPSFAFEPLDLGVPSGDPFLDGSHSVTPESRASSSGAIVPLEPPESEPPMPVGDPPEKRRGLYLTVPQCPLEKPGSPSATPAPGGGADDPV
T7 sequence (P09923 whole entry): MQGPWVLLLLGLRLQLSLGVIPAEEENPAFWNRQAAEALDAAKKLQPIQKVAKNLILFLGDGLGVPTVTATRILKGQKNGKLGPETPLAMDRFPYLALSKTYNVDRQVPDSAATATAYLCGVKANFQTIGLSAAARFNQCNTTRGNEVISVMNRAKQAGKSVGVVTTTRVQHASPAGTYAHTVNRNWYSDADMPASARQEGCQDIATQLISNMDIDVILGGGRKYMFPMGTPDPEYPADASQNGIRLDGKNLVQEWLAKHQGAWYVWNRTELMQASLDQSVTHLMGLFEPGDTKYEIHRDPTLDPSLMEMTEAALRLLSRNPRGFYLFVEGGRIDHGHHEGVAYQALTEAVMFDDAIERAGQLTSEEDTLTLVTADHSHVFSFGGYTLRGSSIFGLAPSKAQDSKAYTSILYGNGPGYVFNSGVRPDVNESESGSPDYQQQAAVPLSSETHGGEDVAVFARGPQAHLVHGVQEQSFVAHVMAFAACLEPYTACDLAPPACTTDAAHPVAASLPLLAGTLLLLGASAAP
Tyrosine-protein phosphatase non-receptor type 5, sequence (P54829 whole entry): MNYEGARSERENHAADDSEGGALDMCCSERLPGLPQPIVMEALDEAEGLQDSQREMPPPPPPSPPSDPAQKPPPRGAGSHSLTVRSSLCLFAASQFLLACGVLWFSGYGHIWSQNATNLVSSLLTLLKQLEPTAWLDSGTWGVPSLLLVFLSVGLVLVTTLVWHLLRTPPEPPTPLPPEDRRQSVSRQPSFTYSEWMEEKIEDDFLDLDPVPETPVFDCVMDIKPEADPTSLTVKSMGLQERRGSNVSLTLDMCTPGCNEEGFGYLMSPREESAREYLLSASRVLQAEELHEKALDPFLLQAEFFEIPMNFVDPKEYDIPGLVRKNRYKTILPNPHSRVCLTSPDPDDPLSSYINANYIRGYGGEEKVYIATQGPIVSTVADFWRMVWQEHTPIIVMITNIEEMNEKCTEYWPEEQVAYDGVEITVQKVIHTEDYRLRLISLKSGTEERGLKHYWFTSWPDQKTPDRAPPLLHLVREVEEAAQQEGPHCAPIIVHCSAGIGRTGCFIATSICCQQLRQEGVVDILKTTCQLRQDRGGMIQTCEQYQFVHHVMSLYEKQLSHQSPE
Intestinal-type alkaline phosphatase (Mus musculus, UniProt P24822), sequence (P24822 whole entry): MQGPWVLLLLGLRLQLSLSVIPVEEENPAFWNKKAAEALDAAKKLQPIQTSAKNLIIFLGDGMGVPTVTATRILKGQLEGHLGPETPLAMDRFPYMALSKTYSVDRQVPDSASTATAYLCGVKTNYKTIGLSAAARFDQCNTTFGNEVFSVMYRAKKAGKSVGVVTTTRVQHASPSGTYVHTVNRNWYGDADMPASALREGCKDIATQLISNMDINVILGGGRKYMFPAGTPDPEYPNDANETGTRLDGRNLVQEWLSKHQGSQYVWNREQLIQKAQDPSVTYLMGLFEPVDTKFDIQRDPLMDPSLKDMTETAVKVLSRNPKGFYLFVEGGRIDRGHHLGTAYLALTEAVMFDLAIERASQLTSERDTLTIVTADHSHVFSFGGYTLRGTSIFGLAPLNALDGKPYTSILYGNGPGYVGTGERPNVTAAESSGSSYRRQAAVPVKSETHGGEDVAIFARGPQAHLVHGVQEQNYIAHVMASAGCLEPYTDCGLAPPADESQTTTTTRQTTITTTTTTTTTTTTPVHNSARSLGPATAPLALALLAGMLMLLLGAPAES
Tyrosine-protein phosphatase non-receptor type 11, sequence (Q06124 whole entry): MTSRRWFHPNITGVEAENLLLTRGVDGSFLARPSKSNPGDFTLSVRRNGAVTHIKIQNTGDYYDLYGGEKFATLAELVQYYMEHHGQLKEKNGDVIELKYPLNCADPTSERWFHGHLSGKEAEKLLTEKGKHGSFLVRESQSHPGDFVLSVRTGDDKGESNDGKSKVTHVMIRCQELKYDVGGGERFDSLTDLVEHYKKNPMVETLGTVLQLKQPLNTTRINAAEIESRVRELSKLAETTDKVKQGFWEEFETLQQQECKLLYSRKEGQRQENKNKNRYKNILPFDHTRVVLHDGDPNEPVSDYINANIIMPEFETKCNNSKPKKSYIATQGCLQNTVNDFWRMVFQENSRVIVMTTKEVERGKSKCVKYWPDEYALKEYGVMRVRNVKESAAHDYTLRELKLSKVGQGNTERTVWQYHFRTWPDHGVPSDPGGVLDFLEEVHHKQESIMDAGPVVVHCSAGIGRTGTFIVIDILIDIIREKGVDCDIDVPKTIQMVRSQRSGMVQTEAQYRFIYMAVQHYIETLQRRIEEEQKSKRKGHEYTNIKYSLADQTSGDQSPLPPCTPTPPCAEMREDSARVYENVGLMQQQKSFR
Nonstructural protein 1, sequence (Q194T2 whole entry): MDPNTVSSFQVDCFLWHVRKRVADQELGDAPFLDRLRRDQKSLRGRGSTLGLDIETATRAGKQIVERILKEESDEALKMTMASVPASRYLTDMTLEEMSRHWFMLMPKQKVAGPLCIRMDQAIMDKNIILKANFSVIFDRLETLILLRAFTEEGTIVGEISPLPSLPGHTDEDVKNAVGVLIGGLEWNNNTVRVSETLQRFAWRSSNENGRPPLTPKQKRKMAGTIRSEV

For `S=C(NCCc1ccccc1)Nc1c(Cl)cccc1Cl`, the IC50 in assay [1] is > 99 µM (inactive); in assay [2], 0.447 µM (active); in the assay “cells [3]”, > 29.9 µM (inactive); in assay [5] it was 4.11 µM (active); in [6] it was 5.76 µM (active); in assay [8] it was 0.0345 µM (active). Further, the IC50 in assay [9] is 0.347 µM (active); in assay [10], > 99 µM (inactive); in [11], > 100 µM (inactive); in assay [12], 14.5 µM (active); in assay [13], 2.44 µM (active); in assay [14], 4.31 µM (active). In addition, the IC50 in assay [15] was 0.342 µM (active); in assay [16], 1.12 µM (active); in assay [17] it was > 158 µM (not active). Also, the EC50 (in general, the concentration that produces a half-maximal response) in assay [4] is 0.565 µM (active); in “cells [7]” it was > 29.9 µM (inactive).

With `CN(C)c1ccc(N=Nc2ccccc2Br)cc1`, the EC50 (in assay [18]; in the assay “cells [19]”) was > 67.5 µM (inactive) throughout. Further, the IC50 in assay [20] is 38.2 µM (active); in assay [21], 28.1 µM (inactive); on Nonstructural protein 1 it was 17.2 µM (active); in assay [22] it was 36 µM (active); in [23], 30.9 µM (active).

For `CC(C)(C)CCN1CC2CCC(NC(=O)c3cc(Cl)cc(Cl)c3)C2C1` (stereo unspecified), the 50% effective concentration (EC50) is 0.66 µM (active) in [24] and 0.08 µM (active) in [25].
